Assay results published in US20170165322A1, “PEPTIDE AND SMALL MOLECULE AGONISTS OF EPHA AND THEIR USES IN DISEASE” (CASE WESTERN RESERVE UNIVERSITY, priority 2006, published 2017).

How the values were obtained:
H460 xenograft = H460 xenograft growth in nude mice; assay type: in vivo, human; conditions: ephrin-A1-Fc 5 μg/g i.p. once every two days, five times, Alimta 150 mg/kg i.p. daily x 5 days
Procedure: FIGS. 16(A-B) illustrate, A) Systemic treatment with ephrin-A1-Fc, but not control Fc, inhibited the growth of H1975 NSCLC xenografts. Eight-week old NCR nude mice were injected with 2×10^6 H1975 cells s.c. into the hind flanks. One week later, when the tumors had reached an average of about 100 mm3, mice (5/group) were injected i.p. twice a week with Fc or ephrin-A1-Fc at 2.5 or 5.0 μg/g. Equal volume of PBS was used as control. The day of the first treatment was designated as day 1. Rapid tumor growth necessitated termination of experiment at day 18. B) Comparison between ephrin-A1-Fc and Alimta for therapeutic efficacy on H460 xenografts. Cell implantation and treatment were the same as in (A). Alimta/Pemetrexed was injected at 150 mg/kg, i.p daily×5 days), or ephrin-A1-Fc (5 μg/g, mouse, i.p, once every two days, for five times). Note ephrin-A1-Fc treatment achieved better efficacy of tumor growth inhibition than Alimta, a new drug for lung cancer therapy in this cell type. * Indicates significant difference between PBS and ephrin-A1-treated groups, p<0.05.
We next compared ephrin-A1-Fc and Alimta/Pemetrexed for therapeutic efficacy against H460 xenograft. H460 cells are derived from a lung adenocarcinoma that express moderate levels of EphA2 (not shown). […]

ERK1/2 = test: Immunoblot of p-ERK1/2 in DU145 cells; assay type: cell-based, human; conditions: DU145-vector, okadaic acid pretreatment 1 h, then ephrin-A1 30 min
Procedure: (§1) A Immunoblot analysis of the expression and tyrosine phosphorylation of EphA2 in DU145 cells. Parental DU145 cells were stably infected with a retroviral vector expressing wild-type EphA2 or empty vector. Clonal puromycin-resistant cells were isolated and expanded. The selected cells at 70-80% confluence were stimulated with 2 μg/ml ephrin-A1-Fc for the indicated times. The total cell lysates were resolved by SDS-PAGE and then probed with rabbit polyclonal anti-p-EphA/B and anti-EphA2 antibodies. […] The cells were treated as described in (A). Cell lysates were subject to immunoblot with the indicated antibodies.
(§2) DU145-vector cells were pretreated with okadaic acid (10, 50, and 250 nM) for 1 h, followed by stimulation with ephrin-A1-Fc for 30 min. The total cellular lysates were prepared and subjected to immunoblot analyses as described in FIG. 1 using the indicated antibodies. Notes: Okadaic acid inhibits only PP2A at low concentrations (<100 nM), but it inhibits both PP1 and PP2A at higher concentrations (>100 nM).
(§3) A. Cells were treated with rapamycin (1 nM) in the absence or presence of ephrin-A1 (2 μg/ml) for the indicated times Immunoblot analysis was performed as described above. […]

PP2A = conditions: low concentrations; cited from earlier work
PP1 = conditions: higher concentrations; cited from earlier work
Akt = test: Immunoblot of p-Akt (Ser473) in DU145 cells; assay type: cell-based, human; conditions: DU145-vector, then ephrin-A1 30 min
Procedure: as §1, §2, §3

Row | Structure (SMILES) | growth of H460 xenograft (H460 xenograft) | effects on ERK1/2 under the same conditions (ERK1/2) | concentrations at which only PP2A is inhibited (PP2A) [nM] | concentrations at which both PP1 and PP2A are inhibited (PP1) [nM] | effect on Akt dephosphorylation induced by EphA2 activation (Akt; okadaic acid 250 nM pretreatment 1 h) | effect on Akt dephosphorylation induced by EphA2 activation (Akt; okadaic acid 10 and 50 nM pretreatment 1 h)
1 | Nc1nc2[nH]cc(CCc3ccc(C(=O)N[C@@H](CCC(=O)O)C(=O)O)cc3)c2c(=O)[nH]1 [Alimta, Pemetrexed] | minimal effects | – | – | – | – | –
2 | C=C1[C@@H](O)[C@@H]2O[C@]3(CC[C@H](/C=C/[C@@H](C)[C@@H]4CC(C)=C[C@@]5(O[C@H](C[C@@](C)(O)C(=O)O)CC[C@H]5O)O4)O3)CC[C@H]2O[C@@H]1[C@@H](O)C[C@H](C)[C@H]1O[C@@]2(CCCCO2)CC[C@H]1C [okadaic acid] | – | not as pronounced | < 100 | > 100 | completely blocked | did not affect Akt dephosphorylation
